The target in test [1] is sGC α1/β1 heterodimer (Homo sapiens (Human), UniProt Q02108+Q02153). Kind of test: Cell-based sGC functional assay (cyclic GMP assay for sGC activator: CASA assay). On the set-up: % Activation: concentration or dose not given beside the values. Conditions: CHO-K1/sGC cells; for EC50: inflection point, 4P fit, read-out: IP; for Emax: CHO-K1, activity expressed as percentage of compound A (standard), read-out: % Activation. In a few lines: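 CHO-K1 cells stably expressing human sGC α1/β1 were pre-incubated 30 min at 25° C with or without 1 μM DETA-NO, then exposed to compound for 1 hr at 37° C with 0.5 mM IBMX and 2.5% DMSO final. Intracellular cGMP was measured by HTRF, expressed as % of reference sGC-HDA maximum; inflection point and maximum fold induction came from 4-parameter fits.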

Test [2] addresses human recombinant sGC enzyme (Homo sapiens (Human), UniProt Q02108+Q02153). Kind of test: Size Exclusion Chromatography (SEC) competition binding assay using [3H] Ex-77B as the radioligand. Conditions: [3H] Ex-77B radioligand, 24 hours at 37° C. On the procedure: Binding Assay: The binding potencies of sGC compounds to the human recombinant sGC enzyme were determined in a Size Exclusion Chromatography (SEC) competition binding assay using [^3H] Ex-77B as the radioligand. [^3H] Ex-77B was prepared using a standardardized tritium exchange procedure. The parent (non-labeled) molecule was first iodinated then a Pd-catalyzed iodine to tritium exchange provided the labeled compound. […] Assays were conducted in 96-well plates in a total volume of 200 μL. […] Non-specific binding was defined by competition with 1 μM of Ex-77B. After the incubation period, the binding mixtures were loaded onto the gel-filtration plate (ThermoFischer Cat. No. 89808) pre-equilibrated with binding buffer and spun at 1000×g for 3 min at 4° C. on a Bench top centrifuge. The collected eluates in White Frame Clear Well Isoplates (Perkin Elmer Cat #6005040) received 100 μl of UltimaGold scintillation cocktail. The sealed plates were shaken vigorously and span, and counted after 6 hours with a Wallac Microbeta TriLux 1450 LSC & Luminescence Counter (Perkin Elmer). Data from competition experiments were analyzed to determine Ki values using one site fit Ki equation.
For orientation: In gel filtration, larger molecules generally elute earlier.

Broadly, the Ki is a dissociation constant, usually derived from enzyme kinetics or from competition with a known ligand.

As for `CC1CCC(Cn2nc(-c3nc(N)c4c(n3)NC(=O)C4(C)c3nc(CC(C)(C)C(=O)O)co3)c3ccccc32)CC1` (single isomer, unassigned) [Example 231AA, 3-{2-[4-amino-5-methyl-2-{1-[-4-methylcyclo-hexylmethyl]-1H-indazol-3-yl}-6-oxo-6,7-dihydro-5H-pyrrolo[2,3-d]pyrimidin-5-yl]-1,3-oxazol-4-yl}-2,2-dimethyl-propanoic acid], in test [1] (activity expressed as percentage of compound A (standard)), the “% Activation” value is listed as 148.2%. Moreover, the EC50 in test [1] was 113 nM. Further, the Ki in test [2] came to 0.092 nM.
As to `CC1(c2cn(CC3(C(=O)O)CC3)nn2)C(=O)Nc2nc(-c3nn(CCC(F)(F)C(F)(F)F)c4cc(Cl)ccc34)nc(N)c21` (stereo not drawn) [Example 32B, 1-[(4-{4-amino-2-[6-chloro-1-(3,3,4,4,4-pentafluorobutyl)-1H-indazol-3-yl]-5-methyl-6-oxo-6,7-dihydro-5H-pyrrolo[2,3-d]pyrimidin-5-yl}-1H-1,2,3-triazol-1-yl)methyl]cyclopropanecarboxylic acid], in test [1], the Emax is 79% and the EC50 worked out at 445 nM. Moreover, the Ki in test [2] came out at 1.7 nM.
Turning to `CCCCCn1nc(-c2nc(N)c3c(n2)NC(=O)[C@@]3(C)c2ccc(CCC(=O)O)cc2)c2ccc(Cl)cc21` [Example 43B, (S)-3-{4-[4-amino-2-(6-chloro-1-pentyl-1H-indazol-3-yl)-5-methyl-6-oxo-6,7-dihydro-5H-pyrrolo[2,3-d]pyrimidin-5-yl]phenyl}propanoic acid], in test [1], the Emax amounted to 105% and the EC50 worked out at 142 nM. For the same molecule, the Ki in test [2] was found to be 0.096 nM.
With `CC(C)(Cc1csc([C@]2(C)C(=O)Nc3nc(-c4nn(Cc5c(F)cccc5F)c5cc(Cl)ccc45)nc(N)c32)n1)C(=O)O` [Example 183A, (S)-3-(2-{4-amino-2-[6-chloro-1-(2,6-difluorobenzyl)-1H-indazol-3-yl]-5-methyl-6-oxo-6,7-dihydro-5H-pyrrolo[2,3-d]pyrimidin-5-yl}-1,3-thiazol-4-yl)-2,2-dimethyl-propanoic acid], in test [1], the Emax is 111% and the EC50 is 88 nM. Further, the inhibition constant (Ki) in test [2] stood at 0.076 nM.
The corresponding values for `CC(C)(CCc1csc(C2(C)C(=O)Nc3nc(-c4nn(Cc5cccc(F)c5)c5cc(F)ccc45)nc(N)c32)n1)C(=O)O` (stereo not drawn) [Example 196A, 4-(2-{4-amino-2-[6-fluoro-1-(3-fluorobenzyl)-1H-indazol-3-yl]-5-methyl-6-oxo-6,7-dihydro-5H-pyrrolo[2,3-d]pyrimidin-5-yl}-1,3-thiazol-4-yl)-2,2-dimethyl-butanoic acid] are 90.3%, 54 nM and 0.468 nM.
In the case of `C[C@@]1(c2nc(CCC(=O)O)cs2)C(=O)Nc2nc(-c3nn(CCCC(F)(F)F)c4ncccc34)nc(N)c21` [Example 88B, (S)-3-(2-{4-amino-5-methyl-6-oxo-2-[1-(4,4,4-trifluorobutyl)-1H-pyrazolo[3,4-b]pyridin-3-yl]-6,7-dihydro-5H-pyrrolo[2,3-d]pyrimidin-5-yl}-1,3-thiazol-4-yl)propanoic acid], in test [1], the Emax worked out at 88% and the EC50 is 1250 nM. Also, the Ki in test [2] stood at 0.848 nM.
The corresponding values for `C[C@@]1(c2ccc(CCC(=O)O)cc2)C(=O)Nc2nc(-c3nn(Cc4cccc(F)c4)c4cc(Cl)ccc34)nc(N)c21` [Example 69B, (S)-3-(4-{4-amino-2-[6-chloro-1-(3-fluorobenzyl)-1H-indazol-3-yl]-5-methyl-6-oxo-6,7-dihydro-5H-pyrrolo[2,3-d]pyrimidin-5-yl}phenyl)propanoic acid] are 139%, 289 nM and 0.101 nM.
On to `CC(C)(Cc1csc([C@]2(C)C(=O)Nc3nc(-c4nn(CC5CCCC5)c5ncccc45)nc(N)c32)n1)C(=O)O` (single isomer, unassigned) [Example 153A], for which, in test [1], the Emax came to 119% and the EC50 came out at 145 nM. Moreover, in test [2], the Ki was found to be 0.118 nM.
Take `CC(C)(Cc1csc([C@]2(C)C(=O)Nc3nc(-c4nn(Cc5ccccc5F)c5ncc(F)cc45)nc(N)c32)n1)C(=O)O` [Example 91B, (S)-3-(2-{4-amino-2-[5-fluoro-1-(2-fluorobenzyl)-1H-pyrazolo[3,4-b]pyridin-3-yl]-5-methyl-6-oxo-6,7-dihydro-5H-pyrrolo[2,3-d]pyrimidin-5-yl}-1,3-thiazol-4-yl)-2,2-dimethylpropanoic acid]: in test [1], the Emax came to 123% and the EC50 is 132 nM. Moreover, the Ki in test [2] came to 0.18 nM.
The corresponding values for `C[C@@]1(c2ccc(CCC(=O)O)cc2)C(=O)Nc2nc(-c3nn(CC4CCCC4)c4ccccc34)nc(N)c21` [Example 227B, (S)-3-(4-{4-amino-2-[1-(cyclopentyl-methyl)-1H-indazol-3-yl]-5-methyl-6-oxo-6,7-dihydro-5H-pyrrolo[2,3-d]pyrimidin-5-yl}phenyl)propanoic acid] are 63.5%, 74 nM and 0.146 nM.
For `CC1(c2ccc(/C=C/C(=O)O)cc2)C(=O)Nc2nc(-c3nn(Cc4ccccc4F)c4cc(Cl)ccc34)nc(N)c21` (stereo not drawn) [Example 218A, (2E)-3-(4-{4-amino-2-[6-chloro-1-(2-fluorobenzyl)-1H-indazol-3-yl]-5-methyl-6-oxo-6,7-dihydro-5H-pyrrolo[2,3-d]pyrimidin-5-yl}phenyl)prop-2-enoic acid], in that order: 103%, 301 nM and 0.057 nM.
On to `CC(C)(Cc1csc([C@]2(C)C(=O)Nc3nc(-c4nn(Cc5ccccc5F)c5cc(Cl)ccc45)nc(N)c32)n1)c1nn[nH]n1` [Example 238A, (S)-4-amino-2-[6-chloro-1-(2-fluorobenzyl)-1H-indazol-3-yl]-5-methyl-5-{4-[2-methyl-2-(2H-tetrazol-5-yl)propyl]-1,3-thiazol-2-yl}-5,7-dihydro-6H-pyrrolo[2,3-d] pyrimidin-6-one], for which, in test [1], the Emax came to 99.5% and the EC50 was found to be 609 nM. Further, the Ki in test [2] came to 0.095 nM.
Take `CC1(c2nc(CC(=O)O)co2)C(=O)Nc2nc(-c3nn(Cc4ccccc4F)c4ccccc34)nc(N)c21` (stereo not drawn) [Example 203A, (2-{4-amino-2-[1-(2-fluorobenzyl)-1H-indazol-3-yl]-5-methyl-6-oxo-6,7-dihydro-5H-pyrrolo[2,3-d]pyrimidin-5-yl}-1,3-oxazol-4-yl)acetic acid]: in test [1], the Emax is 122% and the EC50 was determined as 330 nM. For the same molecule, the Ki in test [2] is 0.071 nM.
On to `CC1(c2ccc(CCCC(=O)O)cc2)C(=O)Nc2nc(-c3nn(Cc4ccccc4F)c4ncccc34)nc(N)c21` (stereo not drawn) [Example 113B, 4-(4-{4-Amino-2-[1-(2-fluorobenzyl)-1H-pyrazolo[3,4-b]pyridin-3-yl]-5-methyl-6-oxo-6,7-dihydro-5H-pyrrolo[2,3-d]pyrimidin-5-yl}phenyl)butanoic acid], for which, in test [1], the Emax was 89% and the EC50 is 568 nM. The Ki in test [2] was 0.064 nM.
In the case of `CC(C)(Cc1csc([C@]2(C)C(=O)Nc3nc(-c4nn(Cc5cccc(F)c5)c5cc(F)ccc45)nc(N)c32)n1)C(=O)O` [Example 194A, (S)-3-(2-{4-amino-2-[6-fluoro-1-(3-fluorobenzyl)-1H-indazol-3-yl]-5-methyl-6-oxo-6,7-dihydro-5H-pyrrolo[2,3-d]pyrimidin-5-yl}-1,3-thiazol-4-yl)-2,2-dimethyl-propanoic acid], in test [1], the Emax was found to be 128% and the EC50 worked out at 73 nM. In addition, in test [2], the Ki is 0.041 nM.
For `CC(C)(Cc1coc(C2(C)C(=O)Nc3nc(-c4nn(Cc5ccc(F)cc5F)c5cc(Cl)ccc45)nc(N)c32)n1)C(=O)O` (stereo not drawn) [Example 178A, 3-(2-{4-amino-2-[6-chloro-1-(2,4-difluorobenzyl)-1H-indazol-3-yl]-5-methyl-6-oxo-6,7-dihydro-5H-pyrrolo[2,3-d]pyrimidin-5-yl}-1,3-oxazol-4-yl)-2,2-dimethyl-propanoic acid], in that order: 124%, 429 nM and 0.116 nM.
As to `Cc1oc(C2(C)C(=O)Nc3nc(-c4nn(Cc5cccc(F)c5)c5cc(Cl)ccc45)nc(N)c32)nc1CC(C)(C)C(=O)O` (stereo not drawn) [Example 176B, 3-(2-{4-amino-2-[6-chloro-1-(3-fluorobenzyl)-1H-indazol-3-yl]-5-methyl-6-oxo-6,7-dihydro-5H-pyrrolo[2,3-d]pyrimidin-5-yl}-5-methyl-1,3-oxazol-4-yl)-2,2-dimethyl-propanoic acid], in test [1], the Emax worked out at 118% and the EC50 worked out at 1470 nM. In addition, the Ki in test [2] was found to be 0.13 nM.
Regarding `CC(C)(Cc1csc([C@]2(C)C(=O)Nc3nc(-c4nn(CC5CCCCO5)c5ncccc45)nc(N)c32)n1)C(=O)O` (single isomer, unassigned) [Example 123AA], in test [1], the Emax turned out to be 79% and the EC50 worked out at 880 nM. In addition, the inhibitory constant (Ki) in test [2] turned out to be 1.23 nM.

Source of the values: patent publication US10030027B2, “Soluble guanylate cyclase stimulators” (MERCK SHARP & DOHME CORP., priority 2015, dated 2018).
